Values quoted from earlier work as cited in patent US10393636B2 (priority 2017, dated 2019).

Structure (SMILES): CN[C@H]1CC[C@@H](c2ccc(Cl)c(Cl)c2)c2ccccc21 [Sertraline]
- Log P: 5.06
